Source: patent US7745428B2, “Imidazo[1,2-A]pyridine having anti-cell-proliferation activity” (AstraZeneca AB, priority 2005, dated 2010)

Target: T1, CDK2/Cyclin E (Homo sapiens, UniProt P24941)
T1 construct: The open reading frames of CDK2 and Cyclin E were isolated; made in house; host or cells: Sf21 (Spodoptera frugiperda) insect cells, baculovirus co-infection; substrate in E. coli BL21 (DE3) pLysS
Assay: in vitro kinase assay (Scintillation Proximity Assay), CDK2/Cyclin E, GST-Rb substrate
Format: biochemical
Conditions: in-vitro SPA kinase assay, 0.2 μM ATP, room temperature, 60 minutes; read-out: CDK2 inhibitory activity (CDK2 enzyme)
Experimental: The compounds were tested in an in vitro kinase assay in 96 well format using Scintillation Proximity Assay (SPA—obtained from Amersham) for measuring incorporation of [γ-33-P]-Adenosine Triphosphate into a test substrate (GST-Retinoblastoma protein; GST-Rb). In each well was placed the compound to be tested (diluted in DMSO and water to correct concentrations) and in control wells either roscovitine as an inhibitor control or DMSO as a […] control.
Approximately 0.2 μl of CDK2/Cyclin E partially-purified enzyme (amount dependent on enzyme activity) diluted in 25 μl incubation buffer was added to each well then 20 μl of GST-Rb/ATP/ATP33 mixture (containing 0.5 μg GST-Rb and 0.2 μM ATP and 0.14 μCi[γ-33-P]-Adenosine Triphosphate in incubation buffer), and the resulting mixture shaken gently, then incubated at room temperature for 60 minutes. […]
The plates were sealed with Topseal-S plate sealers, left for two hours then spun at 2500 rpm, 1124×g., for 5 minutes. The plates were read on a Topcount for 30 seconds per well. […]
The open reading frames of CDK2 and Cyclin E were isolated by reverse transcriptase-PCR using HeLa cell and activated T cell mRNA as a template and cloned into the insect expression vector pVL1393 (obtained from Invitrogen 1995 catalogue number: V1392-20). […]

IC50: 90 nM
Compound: CN1CCN(C(=O)c2ccc(Nc3nccc(-c4cnc5ccccn45)n3)cc2)CC1 [Example 2, [4-(4-Imidazo[1,2-a]pyridin-3-yl-pyrimidin-2-ylamino)-phenyl]-(4-methyl-piperazin-1-yl)-methanone]
